Each structure is given as a SMILES string. Numbered stars: 1 amine (or outer) side, 2 acyl side, 3 side chain; on linkers, the order of the positions; unused ones are H or OH. Side chains are listed from the residue outwards. Peptide text beside a SMILES is read from it. * marks the point of attachment. C18 diacid = O=C(O)CCCCCCCCCCCCCCCCC(=O)*; γGlu = O=C(O)[C@H](CCC(=O)[*:2])N[*:1]; AEEA = NCCOCCOCC(=O)O

The term EC50 denotes the concentration that produces a half-maximal response. A lower EC50 goes with a more potent agent.

The target in this test is T1, glucagon receptor (Homo sapiens, UniProt P47871).
T1 construct: expressed in transfected cells
T1 sequence (P47871 26-477): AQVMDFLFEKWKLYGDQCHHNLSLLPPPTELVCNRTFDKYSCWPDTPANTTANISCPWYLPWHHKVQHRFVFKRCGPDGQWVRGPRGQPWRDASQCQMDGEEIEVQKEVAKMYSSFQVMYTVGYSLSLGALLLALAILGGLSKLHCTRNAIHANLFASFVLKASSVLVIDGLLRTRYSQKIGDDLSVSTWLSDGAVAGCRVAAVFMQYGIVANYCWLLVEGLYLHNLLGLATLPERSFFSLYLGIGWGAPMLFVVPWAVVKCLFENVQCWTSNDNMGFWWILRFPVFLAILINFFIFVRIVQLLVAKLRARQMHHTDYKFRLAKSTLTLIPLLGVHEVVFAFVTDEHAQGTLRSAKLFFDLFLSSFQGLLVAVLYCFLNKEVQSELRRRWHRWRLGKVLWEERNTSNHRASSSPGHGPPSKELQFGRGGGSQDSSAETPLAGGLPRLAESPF
Description: Assay (I) Glucagon activity (cAMP biosensor, FLIPR). The class given is cell-based.
`CC(C)C[C@H](NC(=O)[C@H](CC(N)=O)NC(=O)[C@H](CC(C)C)NC(=O)[C@H](CC(C)C)NC(=O)[C@H](Cc1c[nH]c2ccccc12)NC(=O)[C@H](CCCCNC(=O)CC[C@H](NC(=O)COCCOCCNC(=O)COCCOCCNC(=O)CC[C@H](NC(=O)CCCCCCCCCCCCCCCCC(=O)O)C(=O)O)C(=O)O)NC(=O)[C@@H](NC(=O)[C@H](Cc1ccccc1)NC(=O)[C@H](CC(=O)O)NC(=O)[C@H](CCC(N)=O)NC(=O)[C@H](C)NC(=O)[C@H](CCCNC(=N)N)NC(=O)[C@H](CCCNC(=N)N)NC(=O)[C@H](CO)NC(=O)[C@H](CCC(=O)O)NC(=O)[C@H](CC(C)C)NC(=O)[C@H](Cc1ccc(O)cc1)NC(=O)[C@H](CCCCN)NC(=O)[C@H](CO)NC(=O)[C@H](Cc1ccc(O)cc1)NC(=O)[C@H](CC(=O)O)NC(=O)[C@H](CO)NC(=O)[C@@H](NC(=O)[C@H](Cc1ccccc1)NC(=O)[C@@H](NC(=O)CNC(=O)[C@H](CCC(N)=O)NC(=O)[C@H](CO)NC(=O)[C@@H](N)Cc1c[nH]cn1)[C@@H](C)O)[C@@H](C)O)C(C)C)C(=O)O` [Example 34, N^ε24-[(4S)-4-carboxy-4-[[2-[2-[2-[[2-[2-[2-[[(4S)-4-carboxy-4-(17-carboxyheptadecanoylamino)butanoyl]amino]ethoxy]ethoxy]acetyl]amino]ethoxy]ethoxy]acetyl]amino]butanoyl]-[Glu15,Lys24,Leu27,Leu29]-Glucagon] yielded an EC50 of 1.9 nM.
The value for `CC[C@H](C)[C@H](NC(=O)[C@H](CC(N)=O)NC(=O)[C@H](CC(C)C)NC(=O)[C@H](CC(C)C)NC(=O)[C@H](Cc1c[nH]c2ccccc12)NC(=O)[C@H](CCCCNC(=O)CC[C@H](NC(=O)COCCOCCNC(=O)COCCOCCNC(=O)CC[C@H](NC(=O)CCCCCCCCCCCCCCCCC(=O)O)C(=O)O)C(=O)O)NC(=O)[C@@H](NC(=O)[C@H](Cc1ccccc1)NC(=O)[C@H](CC(=O)O)NC(=O)[C@H](CCC(N)=O)NC(=O)[C@H](C)NC(=O)[C@H](CCCNC(=N)N)NC(=O)[C@H](CCCNC(=N)N)NC(=O)[C@@H](NC(=O)[C@H](CC(=O)O)NC(=O)[C@H](CC(C)C)NC(=O)[C@H](Cc1ccc(O)cc1)NC(=O)[C@H](CCCCN)NC(=O)[C@H](CO)NC(=O)[C@H](Cc1ccc(O)cc1)NC(=O)[C@H](CC(=O)O)NC(=O)[C@H](CO)NC(=O)[C@@H](NC(=O)[C@H](Cc1ccccc1)NC(=O)[C@@H](NC(=O)CNC(=O)[C@H](CCC(N)=O)NC(=O)[C@H](CO)NC(=O)[C@@H](N)Cc1c[nH]cn1)[C@@H](C)O)[C@@H](C)O)[C@@H](C)O)C(C)C)C(=O)O` [Example 35, N^ε24-[(4S)-4-carboxy-4-[[2-[2-[2-[[2-[2-[2-[[(4S)-4-carboxy-4-(17-carboxyheptadecanoylamino)butanoyl]amino]ethoxy]ethoxy]acetyl]amino]ethoxy]ethoxy]acetyl]amino]butanoyl]-[Thr16,Lys24,Leu27,Ile29]-Glucagon] was 0.413 nM.
For `CC(C)C[C@H](NC(=O)[C@H](Cc1c[nH]c2ccccc12)NC(=O)[C@H](CCCCNC(=O)CC[C@H](NC(=O)COCCOCCNC(=O)COCCOCCNC(=O)CC[C@H](NC(=O)CCCCCCCCCCCCCCCCC(=O)O)C(=O)O)C(=O)O)NC(=O)[C@@H](NC(=O)[C@H](Cc1ccccc1)NC(=O)[C@H](CCC(=O)O)NC(=O)[C@H](CCC(N)=O)NC(=O)[C@H](C)NC(=O)[C@H](CCCNC(=N)N)NC(=O)[C@H](CCCNC(=N)N)NC(=O)[C@@H](NC(=O)[C@H](CC(=O)O)NC(=O)[C@H](CC(C)C)NC(=O)[C@H](Cc1ccc(O)cc1)NC(=O)[C@H](CCCCN)NC(=O)[C@H](CO)NC(=O)[C@H](Cc1ccc(O)cc1)NC(=O)[C@H](CC(=O)O)NC(=O)[C@H](CO)NC(=O)[C@@H](NC(=O)[C@H](Cc1ccccc1)NC(=O)[C@@H](NC(=O)CNC(=O)[C@H](CCC(N)=O)NC(=O)[C@H](CO)NC(=O)[C@@H](N)Cc1c[nH]cn1)[C@@H](C)O)[C@@H](C)O)[C@@H](C)O)C(C)C)C(=O)N[C@@H](CC(C)C)C(=O)N[C@@H](CC(N)=O)C(=O)N[C@H](C(=O)O)C(C)C` [Example 36, N^ε24-[(4S)-4-carboxy-4-[[2-[2-[2-[[2-[2-[2-[[(4S)-4-carboxy-4-(17-carboxyheptadecanoylamino)butanoyl]amino]ethoxy]ethoxy]acetyl]amino]ethoxy]ethoxy]acetyl]amino]butanoyl]-[Thr16,Glu21,Lys24,Leu27,Val29]-Glucagon] (H-HSQGTFTSDYSKYLDTRRAQEFVK([γGlu-AEEA-AEEA-γGlu-C18 diacid])WLLNV-OH) the value was 0.12 nM; for `CC(C)C[C@H](NC(=O)[C@H](CC(N)=O)NC(=O)[C@H](CC(C)C)NC(=O)[C@H](CC(C)C)NC(=O)[C@H](Cc1c[nH]c2ccccc12)NC(=O)[C@H](CCCCNC(=O)CC[C@H](NC(=O)COCCOCCNC(=O)COCCOCCNC(=O)CC[C@H](NC(=O)CCCCCCCCCCCCCCCCC(=O)O)C(=O)O)C(=O)O)NC(=O)[C@@H](NC(=O)[C@H](Cc1ccccc1)NC(=O)[C@H](CCC(=O)O)NC(=O)[C@H](CCC(N)=O)NC(=O)[C@H](C)NC(=O)[C@H](CCCNC(=N)N)NC(=O)[C@H](CCCNC(=N)N)NC(=O)[C@@H](NC(=O)[C@H](CC(=O)O)NC(=O)[C@H](CC(C)C)NC(=O)[C@H](Cc1ccc(O)cc1)NC(=O)[C@H](CCCCN)NC(=O)[C@H](CO)NC(=O)[C@H](Cc1ccc(O)cc1)NC(=O)[C@H](CC(=O)O)NC(=O)[C@H](CO)NC(=O)[C@@H](NC(=O)[C@H](Cc1ccccc1)NC(=O)[C@@H](NC(=O)CNC(=O)[C@H](CCC(N)=O)NC(=O)[C@H](CO)NC(=O)[C@@H](N)Cc1c[nH]cn1)[C@@H](C)O)[C@@H](C)O)[C@@H](C)O)C(C)C)C(=O)O` [Example 37, N^ε24-[(4S)-4-carboxy-4-[[2-[2-[2-[[2-[2-[2-[[(4S)-4-carboxy-4-(17-carboxyheptadecanoylamino)butanoyl]amino]ethoxy]ethoxy]acetyl]amino]ethoxy]ethoxy]acetyl]amino]butanoyl]-[Thr16,Glu21,Lys24,Leu27,Leu29]-Glucagon] (H-HSQGTFTSDYSKYLDTRRAQEFVK([γGlu-AEEA-AEEA-γGlu-C18 diacid])WLLNL-OH), 0.183 nM; for `CC(C)C[C@H](NC(=O)[C@H](CC(=O)O)NC(=O)[C@H](CC(C)C)NC(=O)[C@H](Cc1ccc(O)cc1)NC(=O)[C@H](CCCNC(=N)N)NC(=O)[C@H](CO)NC(=O)[C@H](Cc1ccc(O)cc1)NC(=O)[C@H](CC(=O)O)NC(=O)[C@H](CO)NC(=O)[C@@H](NC(=O)[C@H](Cc1ccccc1)NC(=O)[C@@H](NC(=O)CNC(=O)[C@H](CCC(N)=O)NC(=O)[C@H](CO)NC(=O)[C@@H](N)Cc1c[nH]cn1)[C@@H](C)O)[C@@H](C)O)C(=O)N[C@@H](CCCNC(=N)N)C(=O)N[C@@H](CCCNC(=N)N)C(=O)N[C@@H](C)C(=O)N[C@@H](CCC(N)=O)C(=O)N[C@@H](CCC(=O)O)C(=O)N[C@@H](Cc1ccccc1)C(=O)N[C@H](C(=O)N[C@@H](CCCCNC(=O)CC[C@H](NC(=O)CC[C@H](NC(=O)COCCOCCNC(=O)COCCOCCNC(=O)CC[C@H](NC(=O)CCCCCCCCCCCCCCCCC(=O)O)C(=O)O)C(=O)O)C(=O)O)C(=O)N[C@@H](Cc1c[nH]c2ccccc12)C(=O)N[C@@H](CC(C)C)C(=O)N[C@@H](CC(C)C)C(=O)N[C@@H](CO)C(=O)N[C@H](C(=O)O)[C@@H](C)O)C(C)C` [Example 46, N^ε24-[(4S)-4-carboxy-4-[[(4S)-4-carboxy-4-[[2-[2-[2-[[2-[2-[2-[[(4S)-4-carboxy-4-(17-carboxyheptadecanoylamino)butanoyl]amino]ethoxy]ethoxy]acetyl]amino]ethoxy]ethoxy]acetyl]amino]butanoyl]amino]butanoyl]-[Arg12,Leu16,Glu21,Lys24,Leu27,Ser28]-Glucagon] (H-HSQGTFTSDYSRYLDLRRAQEFVK([γGlu-γGlu-AEEA-AEEA-γGlu-C18 diacid])WLLST-OH), 0.095 nM.
